According to patent US9051310B2, “Nicotinamide derivative or salt thereof” (FUJIFILM Corporation, priority 2011, dated 2015):

Assays:
[1] = target: T1, glutathione S-transferase (GST)-linked full-length human Syk protein (Homo sapiens, UniProt P43405); experiment: Syk enzyme assay; type: biochemical; conditions: 0.83 nM Syk, time-resolved fluorescence; read-out: IC50 of Syk-inhibitory activity
T1 construct: glutathione S-transferase (GST)-linked full-length human Syk protein; purchased Carna Biosciences; host or cells: Baculovirus expression system
Procedure, shortened: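 Phosphotyrosine on a biotin-peptide substrate (0.5 μM) was read by time-resolved fluorescence at 615 and 665 nm with Eu-anti-pTyr antibody and APC-streptavidin after 1 h EDTA stop.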

[2] = tested on: THP-1 cells (TNFα secretion on human IgG-coated plate); experiment: TNFα generation assay; type: cell-based; conditions: IFN-γ differentiated THP-1 cells, 7 hours, AlphaLISA, read-out: IC50 of TNFα generation inhibitory activity
Procedure, shortened: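 Secreted TNFα was measured by AlphaLISA after 7 h of culture on human IgG-coated wells (coating at 10 μg/ml), with 5×10^4 cells/well. Before plating, the cells had been treated with compound for 30 min at room temperature. The cells were macrophage-like THP-1, produced by a 2-day exposure to 10 ng/ml IFN-γ.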

[3] = tested on: THP-1 cells (phagocytosis of opsonized Escherichia coli); experiment: Antibody-dependent phagocytosis assay; type: cell-based; conditions: Homo sapiens; IFNγ differentiated THP-1 cells, opsonized pHrodo Escherichia coli, 3 hours; read-out: IC50 upon phagocytosis inhibition
Procedure, shortened: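 Read-out was imaging-based quantification of pHrodo-labeled, antibody-opsonized E. coli taken up by Calcein AM-stained viable cells after 3 h at 37° C. The cells were IFNγ-differentiated THP-1 macrophages (10 ng/ml, 2 days), preincubated with compound for 30 min at room temperature.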

[4] = tested on: mouse thrombocytopenia induced by anti-mouse CD41 antibody; experiment: Mouse thrombocytopenia model; type: in vivo; conditions: Platelet, female BALB/c mice, 50 mg/kg 1 hour before anti-CD41 antibody, blood sampling 4 hours after antibody, read-out: improvement of platelet count compared with the control group
Description: Test compounds were tested to examine effects upon mouse thrombocytopenia. Each test compound (50 mg/kg) was administered to 5- to 7-week-old female BALB/c mice (Charles River Laboratories Japan, Inc.). One hour thereafter, an anti-mouse CD41 ([…]) antibody (SCB) (1 μg (200 μl)) was intravenously administered to each mouse so as to induce thrombocytopenia. Four hours after administration of the anti-CD41 antibody, blood sampling from the postcava was performed. The platelet count was determined using an automated hematology analyzer.

Row | IC50 [1] [nM] | IC50 [2] [nM] | IC50 [3] [nM] | Compound | change in vivo at 50 mg/kg [4] [%]
1 | < 10 | – | < 1000 | C[C@H](N)[C@@H](CC1CC1)Nc1nc(Nc2ccc3c(c2)c(N(C)C)nn3C)c(C(N)=O)cc1F [Example 2-2, 6-(((2R,3S)-3-amino-1-cyclopropylbutan-2-yl)amino)-2-((3-(dimethylamino)-1-methyl-1H-indazol-5-yl)amino)-5-fluoronicotinamide] | ≥ 50
2 | < 10 | – | 1000 to 3000 | C[C@H](N)[C@H](Nc1nc(Nc2cc(F)c3c(c2)c(N(C)C)nn3C)c(C(N)=O)cc1F)C1CCC1 [Example 2-192, 6-(((1R,2S)-2-amino-1-cyclobutylpropyl)amino)-2-((3-(dimethylamino)-7-fluoro-1-methyl-1H-indazol-5-yl)amino)-5-fluoronicotinamide] | ≥ 50
3 | < 10 | – | – | COCCN(C)c1nn(C)c2ccc(Nc3nc(N[C@@H]4CCCC[C@@H]4N)c(F)cc3C(N)=O)cc12 [Example 2-456, 6-(((1R,2S)-2-aminocyclohexyl)amino)-5-fluoro-2-((3-((2-methoxyethyl)(methyl)amino)-1-methyl-1H-indazol-5-yl)amino)nicotinamide] | ≥ 50
4 | < 10 | < 65 | – | CCn1ncc2cc(Nc3nc(N[C@@H]4CCOC[C@@H]4N)c(F)cc3C(N)=O)ccc21 [Example 2-326, 6-(((3R,4R)-3-aminotetrahydro-2H-pyran-4-yl)amino)-2-((1-ethyl-1H-indazol-5-yl)amino)-5-fluoronicotinamide] | ≥ 50
5 | < 10 | – | 1000 to 3000 | C[C@H](N)[C@H](Nc1nc(Nc2ccc3c(c2)c(N(C)C)nn3C)c(C(N)=O)cc1F)C1CCC1 [Example 2-89, 6-(((1R,2S)-2-amino-1-cyclobutylpropyl)amino)-2-((3-(dimethylamino)-1-methyl-1H-indazol-5-yl)amino)-5-fluoronicotinamide] | ≥ 50
6 | 10 to 50 | – | 1000 to 3000 | CC[C@H](N)[C@H](Nc1nc(Nc2cnc(C)c(-n3nccn3)c2)c(C(N)=O)cc1F)C1CC1 [Example 2-358, 6-(((1R,2S)-2-amino-1-cyclopropylbutyl)amino)-5-fluoro-2-((6-methyl-5-(2H-1,2,3-triazol-2-yl)pyridin-3-yl)amino)nicotinamide] | ≥ 50
7 | 10 to 50 | 130 to 200 | – | CC[C@@H](Nc1nc(Nc2cnc3c(c2)c(OC)nn3C)c(C(N)=O)cc1F)[C@H](C)N [Example 2-251, 6-(((2S,3R)-2-aminopentan-3-yl)amino)-5-fluoro-2-((3-methoxy-1-methyl-1H-pyrazolo[3,4-b]pyridin-5-yl)amino)nicotinamide] | ≥ 50
8 | < 10 | 130 to 200 | – | Cc1ncc(Nc2nc(N[C@H](c3cccs3)[C@H](C)N)c(F)cc2C(N)=O)cc1-n1nccn1 [Example 2-415, 6-(((1S,2S)-2-amino-1-(thiophen-2-yl)propyl)amino)-5-fluoro-2-((6-methyl-5-(2H-1,2,3-triazol-2-yl)pyridin-3-yl)amino)nicotinamide] | ≥ 50
9 | < 10 | 65 to 130 | < 1000 | CC[C@@H](Nc1nc(Nc2cnc(C)c(C)c2)c(C(N)=O)cc1F)[C@H](C)N [Example 2-17, 6-(((2S,3R)-2-aminopentan-3-yl)amino)-2-((5,6-dimethylpyridin-3-yl)amino)-5-fluoronicotinamide] | –
10 | < 10 | 65 to 130 | 1000 to 3000 | Cc1ncc(Nc2nc(N[C@@H]3CCOC[C@@H]3N)c(F)cc2C(N)=O)cc1-n1nccn1 [Example 2-214, 6-(((3R,4R)-3-aminotetrahydro-2H-pyran-4-yl)amino)-5-fluoro-2-((6-methyl-5-(2H-1,2,3-triazol-2-yl)pyridin-3-yl)amino)nicotinamide] | –
11 | < 10 | 65 to 130 | < 1000 | CCn1ncc2c(Nc3nc(N[C@@H]4CCCC[C@@H]4N)c(F)cc3C(N)=O)cncc21 [Example 2-316] | –
12 | < 10 | 130 to 200 | < 1000 | CC[C@@H](Nc1nc(Nc2ccc3c(c2)c(OC)nn3CC)c(C(N)=O)cc1F)[C@H](C)N [Example 2-52, 6-(((2S,3R)-2-aminopentan-3-yl)amino)-2-((1-ethyl-3-methoxy-1H-indazol-5-yl)amino)-5-fluoronicotinamide] | –
13 | < 10 | < 65 | < 1000 | CC[C@H](N)[C@@H](C)Nc1nc(Nc2ccc3c(cnn3C)c2)c(C(N)=O)cc1F [Example 2-40, 6-(((2R,3S)-3-aminopentan-2-yl)amino)-5-fluoro-2-((1-methyl-1H-indazol-5-yl)amino)nicotinamide] | –

Continued, molecule first:

Row | Compound | IC50 [1] [nM] | IC50 [2] [nM] | IC50 [3] [nM] | change in vivo at 50 mg/kg [4] [%]
14 | C[C@H](N)[C@H](Nc1nc(Nc2cnc(N3CCOCC3)c(F)c2)c(C(N)=O)cc1F)C1CCC1 [Example 2-77, 6-(((1R,2S)-2-amino-1-cyclobutylpropyl)amino)-5-fluoro-2-((5-fluoro-6-morpholinopyridin-3-yl)amino)nicotinamide] | 10 to 50 | 130 to 200 | < 1000 | ≥ 50
15 | NC(=O)c1cc(F)c(N[C@@H]2CCCC[C@@H]2N)nc1Nc1cncc(-n2cc(Cl)cn2)c1 [Example 2-483, 6-(((1R,2S)-2-aminocyclohexyl)amino)-2-((5-(4-chloro-1H-pyrazol-1-yl)pyridin-3-yl)amino)-5-fluoronicotinamide] | < 10 | – | – | ≥ 50
16 | Cc1cc(C)n(-c2cncc(Nc3nc(N[C@@H]4CCCC[C@@H]4N)c(F)cc3C(N)=O)c2)n1 [Example 2-473, 6-(((1R,2S)-2-aminocyclohexyl)amino)-2-((5-(3,5-dimethyl-1H-pyrazol-1-yl)pyridin-3-yl)amino)-5-fluoronicotinamide] | 10 to 50 | – | – | ≥ 50
17 | Cc1nn(CC(F)F)c2ccc(Nc3nc(N[C@@H]4CCOC[C@@H]4N)c(F)cc3C(N)=O)cc12 [Example 2-328, 6-(((3R,4R)-3-aminotetrahydro-2H-pyran-4-yl)amino)-2-((1-(2,2-difluoroethyl)-3-methyl-1H-indazol-5-yl)amino)-5-fluoronicotinamide] | < 10 | < 65 | – | ≥ 50
18 | COCCn1nc(OC(F)F)c2cc(Nc3nc(N[C@@H]4CCOC[C@@H]4N)c(F)cc3C(N)=O)ccc21 [Example 2-352, 6-(((3R,4R)-3-aminotetrahydro-2H-pyran-4-yl)amino)-2-((3-(difluoromethoxy)-1-(2-methoxyethyl)-1H-indazol-5-yl)amino)-5-fluoronicotinamide] | < 10 | – | < 1000 | ≥ 50
19 | C[C@H](N)[C@@H](CC1CC1)Nc1nc(Nc2cccc3c2cnn3CC(F)F)c(C(N)=O)cc1F [Example 2-21, 6-(((2R,3S)-3-amino-1-cyclopropylbutan-2-yl)amino)-2-((1-(2,2-difluoroethyl)-1H-indazol-4-yl)amino)-5-fluoronicotinamide] | < 10 | 130 to 200 | < 1000 | –
20 | COCCn1ncc2c(Nc3nc(N[C@@H]4CCOC[C@@H]4N)c(F)cc3C(N)=O)cccc21 [Example 2-331, 6-(((3R,4R)-3-aminotetrahydro-2H-pyran-4-yl)amino)-5-fluoro-2-((1-(2-methoxyethyl)-1H-indazol-4-yl)amino)nicotinamide] | < 10 | – | 1000 to 3000 | ≥ 50
21 | COc1ncc(Nc2nc(N[C@H](C3CC3)[C@H](C)N)c(F)cc2C(N)=O)cc1-n1ccnn1 [Example 2-162, 6-(((1R,2S)-2-amino-1-cyclopropylpropyl)amino)-5-fluoro-2-((6-methoxy-5-(1H-1,2,3-triazol-1-yl)pyridin-3-yl)amino)nicotinamide] | 10 to 50 | 130 to 200 | 1000 to 3000 | –
22 | CCC[C@@H](Nc1nc(Nc2cncc3c2cnn3CC)c(C(N)=O)cc1F)[C@H](C)N [Example 2-319, 6-(((2S,3R)-2-aminohexan-3-yl)amino)-2-((1-ethyl-1H-pyrazolo[3,4-c]pyridin-4-yl)amino)-5-fluoronicotinamide] | < 10 | 65 to 130 | < 1000 | –
23 | CC(C)C[C@@H](Nc1nc(Nc2cccc3c2cnn3CC(F)F)c(C(N)=O)cc1F)[C@H](C)N [Example 2-22, 6-(((2S,3R)-2-amino-5-methylhexan-3-yl)amino)-2-((1-(2,2-difluoroethyl)-1H-indazol-4-yl)amino)-5-fluoronicotinamide] | < 10 | 130 to 200 | < 1000 | –
